The IC50 is the midpoint of a concentration-inhibition curve. Usually inhibition stands for the drop in the measured response relative to a control, in per cent.

Common to all, as to assay: potency against CXCR6 with APJ panel – cell-based, beta-arrestin, DiscoveRx, uHTS hits, dose response (AID 624129)
The target in experiment [1] is Apelin receptor (Homo sapiens) (UniProt P35414). The settings on record: CXCR6 beta-arrestin (DiscoveRx) antagonist cell assay, APJ.
Experiment [2] deals with Beta-galactosidase (Escherichia coli) (UniProt Q8VNN2). The settings on record: CXCR6 beta-arrestin (DiscoveRx) antagonist cell assay, b-galactosidase.
Beta-galactosidase (Escherichia coli), sequence (Q8VNN2 whole entry, looked up): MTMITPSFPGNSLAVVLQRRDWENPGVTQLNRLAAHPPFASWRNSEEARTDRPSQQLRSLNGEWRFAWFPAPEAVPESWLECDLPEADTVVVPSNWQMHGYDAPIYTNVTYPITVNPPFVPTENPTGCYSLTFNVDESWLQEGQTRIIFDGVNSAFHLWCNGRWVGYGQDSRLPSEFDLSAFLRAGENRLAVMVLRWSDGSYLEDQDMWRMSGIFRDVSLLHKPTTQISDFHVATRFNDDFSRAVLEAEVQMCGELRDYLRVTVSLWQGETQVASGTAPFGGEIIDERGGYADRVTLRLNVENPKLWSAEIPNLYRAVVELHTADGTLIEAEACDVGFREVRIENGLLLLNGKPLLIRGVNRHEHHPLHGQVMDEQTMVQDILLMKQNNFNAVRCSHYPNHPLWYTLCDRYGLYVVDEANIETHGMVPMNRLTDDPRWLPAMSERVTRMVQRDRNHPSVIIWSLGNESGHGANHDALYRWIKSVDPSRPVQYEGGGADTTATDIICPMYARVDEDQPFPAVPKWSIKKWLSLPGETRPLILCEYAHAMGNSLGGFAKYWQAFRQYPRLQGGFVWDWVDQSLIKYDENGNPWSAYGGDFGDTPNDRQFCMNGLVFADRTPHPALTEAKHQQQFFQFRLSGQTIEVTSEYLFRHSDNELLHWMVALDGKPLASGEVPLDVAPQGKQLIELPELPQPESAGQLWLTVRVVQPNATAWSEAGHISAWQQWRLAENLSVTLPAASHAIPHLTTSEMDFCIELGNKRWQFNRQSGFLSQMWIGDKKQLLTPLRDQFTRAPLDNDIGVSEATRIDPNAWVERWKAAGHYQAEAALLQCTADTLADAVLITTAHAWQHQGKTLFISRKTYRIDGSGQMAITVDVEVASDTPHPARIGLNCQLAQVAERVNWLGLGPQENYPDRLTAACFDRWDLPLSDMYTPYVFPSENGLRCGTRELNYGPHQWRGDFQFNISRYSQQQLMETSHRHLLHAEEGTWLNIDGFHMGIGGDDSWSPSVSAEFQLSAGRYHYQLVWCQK
Experiment [3] has as its target C-C chemokine receptor type 6 (Homo sapiens) (UniProt P51684). The note with it: CXCR6 beta-arrestin (DiscoveRx) antagonist cell assay.
In experiment [4] the target is C-X-C chemokine receptor type 6 (Homo sapiens) (UniProt O00574). The note with it: CXCR6 beta-arrestin (DiscoveRx) antagonist cell assay; for inhibition: CXCR6, run 1, dose range 2, at 80 µM (top of the series).
C-X-C chemokine receptor type 6 (Homo sapiens), sequence (O00574 whole entry, looked up): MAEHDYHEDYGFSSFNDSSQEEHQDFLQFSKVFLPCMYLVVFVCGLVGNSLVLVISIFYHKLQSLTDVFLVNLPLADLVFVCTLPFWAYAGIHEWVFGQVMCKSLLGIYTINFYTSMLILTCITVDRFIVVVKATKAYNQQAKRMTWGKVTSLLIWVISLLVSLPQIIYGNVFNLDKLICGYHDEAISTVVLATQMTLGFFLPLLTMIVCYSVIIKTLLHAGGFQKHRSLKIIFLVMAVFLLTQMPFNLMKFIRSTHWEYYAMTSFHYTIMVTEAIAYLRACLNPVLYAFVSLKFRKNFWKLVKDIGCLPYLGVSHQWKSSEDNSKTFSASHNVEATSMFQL
The mark [5] stands for this setting: dose range 1, mean IC50 across replicates.
Where [6] appears, read: CCR6, dose range 1, mean IC50 across replicates.
The mark [7] stands for this setting: CXCR6, dose range 1, mean IC50 across replicates.

The source made the active and inactive calls. The rule behind the calls is not given here. Some results are limits rather than exact numbers.

Consider `S=C(NCCCN1CCOCC1)Nc1ccc(Cl)cc1`, for which the 50% inhibitory concentration (IC50) is 13.7 µM in experiment [1] (dose range 1); 14.5 µM in experiment [1] (setting [5]); 16 µM in experiment [1] (run 2, dose range 1); 13.7 µM in experiment [1] (run 3, dose range 1); 26.5 µM in experiment [2] (dose range 1); 26.5 µM in experiment [2] (setting [5]). Also, the IC50 in experiment [3] (CCR6, dose range 1) is 7.62 µM; in experiment [3] (setting [6]), 9.33 µM; in experiment [3] (CCR6, run 2, dose range 1), 11 µM; in experiment [4] (setting [7]), 12.9 µM; in experiment [4] (CXCR6, run 2, dose range 1), 11 µM. In addition, the IC50 entry in experiment [4] (CXCR6, dose range 1) is “inactive”. In experiment [4], the inhibition is 118%.

For the molecule `COc1ccc(C(=O)/C=C/C(=O)N(CC(=O)NC2CCCCC2)Cc2ccccc2)c(O)c1`, the concentration for half-maximal inhibition (IC50) in experiment [1] (setting [5]) was > 80 µM; in experiment [1] (run 2, dose range 1), > 80 µM; in experiment [1] (run 3, dose range 1), > 80 µM; in experiment [2] (dose range 1) it was > 80 µM (inactive); in experiment [2] (setting [5]), > 80 µM; in experiment [3] (setting [6]), > 80 µM. Besides, the half-inhibitory concentration (IC50) in experiment [3] (CCR6, run 2, dose range 1) is > 80 µM; in experiment [4] (CXCR6, dose range 1), > 80 µM (inactive); in experiment [4] (setting [7]), > 80 µM; in experiment [4] (CXCR6, run 2, dose range 1), > 80 µM. Also, the inhibition in experiment [4] worked out at 9.34%.

On to `CN(C)C(=O)CSc1cccc2cccnc12`, for which the IC50 is > 80 µM in experiment [1] (setting [5]); > 80 µM in experiment [1] (run 2, dose range 1); > 80 µM in experiment [1] (run 3, dose range 1); > 80 µM (inactive) in experiment [2] (dose range 1); > 80 µM in experiment [2] (setting [5]); > 80 µM in experiment [3] (setting [6]). The IC50 in experiment [3] (CCR6, run 2, dose range 1) is > 80 µM; in experiment [4] (CXCR6, dose range 1), > 80 µM (inactive); in experiment [4] (setting [7]) it was > 80 µM; in experiment [4] (CXCR6, run 2, dose range 1), > 80 µM. In addition, the inhibition in experiment [4] is -25%.

On to `COc1cc(/C=C/c2ccc3c(Br)cc(Br)c(O)c3n2)ccc1O`, for which the IC50 in experiment [1] (dose range 1) was 20.3 µM; in experiment [1] (setting [5]), 23.7 µM; in experiment [1] (run 2, dose range 1) it was 18.8 µM; in experiment [1] (run 3, dose range 1), 32.2 µM; in experiment [2] (dose range 1) it was > 80 µM (inactive); in experiment [2] (setting [5]), > 80 µM. Also, the IC50 in experiment [3] (CCR6, dose range 1) is 12.6 µM; in experiment [3] (setting [6]), 12.1 µM; in experiment [3] (CCR6, run 2, dose range 1), 11.6 µM; in experiment [4] (setting [7]), 12.5 µM; in experiment [4] (CXCR6, run 1, dose range 2) it was 8.69 µM; in experiment [4] (CXCR6, run 2, dose range 1) it was 11.8 µM. In experiment [4] (CXCR6, run 2, dose range 2), this molecule yielded an IC50 of 12.5 µM. In experiment [4] (CXCR6, dose range 1), the IC50 entry is “inactive”.

For `CCCC(=O)OCCNc1cc(Sc2nc3ccccc3[nH]2)c2nonc2c1[N+](=O)[O-]`, the IC50 in experiment [1] (dose range 1) is 12.4 µM; in experiment [1] (setting [5]), 9.49 µM; in experiment [1] (run 2, dose range 1), 5.87 µM; in experiment [1] (run 3, dose range 1) it was 10.2 µM; in experiment [2] (setting [5]) it was 50.4 µM; in experiment [3] (CCR6, dose range 1), 5.26 µM. For the same molecule, the 50% inhibitory concentration (IC50) in experiment [3] (setting [6]) is 5.55 µM; in experiment [3] (CCR6, run 2, dose range 1), 5.83 µM; in experiment [4] (CXCR6, dose range 1), 5.82 µM; in experiment [4] (setting [7]), 6.71 µM; in experiment [4] (CXCR6, run 1, dose range 2), 7.57 µM; in experiment [4] (CXCR6, run 2, dose range 1) it was 6.36 µM. Also, the concentration for half-maximal inhibition (IC50) in experiment [4] (CXCR6, run 2, dose range 2) was found to be 7.1 µM. Moreover, in experiment [2] (dose range 1), the IC50 entry was “inactive”.

Turning to `C=CS(=O)(=O)c1ccc(Oc2ccc(S(=O)(=O)C=C)cc2)cc1`, the IC50 was 13.1 µM in experiment [1] (dose range 1); 12.2 µM in experiment [1] (setting [5]); 9.91 µM in experiment [1] (run 2, dose range 1); 13.7 µM in experiment [1] (run 3, dose range 1); > 80 µM (inactive) in experiment [2] (dose range 1); > 80 µM in experiment [2] (setting [5]). For the same molecule, the IC50 in experiment [3] (CCR6, dose range 1) is 7.57 µM; in experiment [3] (setting [6]), 7.23 µM; in experiment [3] (CCR6, run 2, dose range 1) it was 6.88 µM; in experiment [4] (CXCR6, dose range 1) it was 10.2 µM; in experiment [4] (setting [7]), 10.8 µM; in experiment [4] (CXCR6, run 1, dose range 2), 8.79 µM. In addition, the IC50 in experiment [4] (CXCR6, run 2, dose range 1) is 12.2 µM; in experiment [4] (CXCR6, run 2, dose range 2) it was 11.9 µM.

Turning to `COc1cc(C(=O)NC2CC3CCCC(C2)N3CC(=O)Nc2ccccc2)cc(OC)c1OC` (stereo unspecified), the IC50 in experiment [1] (dose range 1) was > 80 µM (inactive); in experiment [1] (setting [5]), > 80 µM; in experiment [1] (run 2, dose range 1), > 80 µM; in experiment [1] (run 3, dose range 1) it was > 80 µM; in experiment [2] (dose range 1), > 80 µM (inactive); in experiment [2] (setting [5]), > 80 µM. For the same molecule, the IC50 was > 80 µM (inactive) in experiment [3] (CCR6, dose range 1); > 80 µM in experiment [3] (setting [6]); > 80 µM in experiment [3] (CCR6, run 2, dose range 1); 13.5 µM in experiment [4] (CXCR6, dose range 1); 10.7 µM in experiment [4] (setting [7]); 12.3 µM in experiment [4] (CXCR6, run 1, dose range 2). In addition, the IC50 in experiment [4] (CXCR6, run 2, dose range 1) was found to be 10.7 µM; in experiment [4] (CXCR6, run 2, dose range 2), 6.07 µM.

Source of the values: PubChem BioAssay AID624129 (Sanford-Burnham Center for Chemical Genomics, 2012).
